From patent US6596718B1, “7-Morpholin-4yl-benzothiazole amide derivatives” (Hoffmann-La Roche Inc., priority 2001, dated 2003) come the findings set out here.

As to `COc1ccc(N2CCOCC2)c2sc(C(=O)NCc3cccc(F)c3)nc12` [Example 20, 4-Methoxy-7-morpholin-4-yl-benzothiazole-2-carboxylic acid 3-fluoro-benzylamide], the melting point (as a rule, the temperature, or range, at which the solid turns liquid) lay in the range of 152 to 153 °C.

`COc1ccc(N2CCOCC2)c2sc(C(=O)NCc3ccccc3F)nc12` [Example 21, 4-Methoxy-7-morpholin-4-yl-benzothiazole-2-carboxylic acid 2-fluoro-benzylamide]: the melting point was in the range of 133 to 134 °C.

In turn, `COc1ccc(N2CCOCC2)c2sc(C(=O)NCc3cccs3)nc12` [Example 23, 4-Methoxy-7-morpholin-4-yl-benzothiazole-2-carboxylic acid (thiophen-2-ylmethyl)-amide] yielded a melting point of 174 to 175 °C.

`COc1ccc(N2CCOCC2)c2sc(C(=O)NCC3CC3)nc12` [Example 24, 4-Methoxy-7-morpholin-4-yl-benzothiazole-2-carboxylic acid cyclopropylmethyl-amide] registered a melting point of 152 to 153 °C.

Molecule `COc1ccc(CNC(=O)c2nc3c(OC)ccc(N4CCOCC4)c3s2)cc1` [Example 26, 4-Methoxy-7-morpholin-4-yl-benzothiazole-2-carboxylic acid 4-methoxy-benzylamide] yielded a melting point of 164 to 168 °C.

As to `COc1cccc(CNC(=O)c2nc3c(OC)ccc(N4CCOCC4)c3s2)c1` [Example 27, 4-Methoxy-7-morpholin-4-yl-benzothiazole-2-carboxylic acid 3-methoxy-benzylamide], the melting point was in the range of 140 to 144 °C.

In turn, `COc1ccc(N2CCOCC2)c2sc(C(=O)NCCNC(=O)c3ccc(Cl)cc3)nc12` [Example 28, 4-Methoxy-7-morpholin-4-yl-benzothiazole-2-carboxylic acid [2-(4-chloro-benzoylamino)-ethyl]-amide] displayed a melting point of 237 to 240 °C.

Molecule `COc1ccc(N2CCOCC2)c2sc(C(=O)NCCN3Cc4ccccc4C3=O)nc12` [Example 29, 4-Methoxy-7-morpholin-4-yl benzothiazole-2-carboxylic acid [2-(1-oxo-1,3-dihydro-isoindol-2-yl)-ethyl]-amide] displayed a melting point of 199 to 205 °C.

In the case of `COc1ccc(N2CCOCC2)c2sc(C(=O)NCC3(c4ccccc4)CCOCC3)nc12` [Example 30, 4-Methoxy-7-morpholin-4-yl-benzothiazole-2-carboxylic acid (4-phenyl-tetrahydro-pyran-4-ylmethyl)-amide], the melting point was in the range of 144 to 148 °C.

In turn, `COc1ccc(N2CCOCC2)c2sc(C(=O)NCc3ccncc3)nc12` [Example 31, 4-Methoxy-7-morpholin-4-yl-benzothiazole-2-carboxylic acid (pyridin-4-ylmethyl)-amide] came in with a melting point of 207 to 209 °C.

Molecule `COc1ccc(N2CCOCC2)c2sc(C(=O)NCCCN3C(=O)c4ccccc4C3=O)nc12` [Example 32, 4-Methoxy-7-morpholin-4-yl-benzothiazole-2-carboxylic acid [3-(1,3-dioxo-1,3-dihydro-isoindol-2-yl)-propyl]-amide] registered a melting point of 200 to 202 °C.

Turning to `COc1ccc(N2CCOCC2)c2sc(C(=O)NCCCCN3C(=O)c4ccccc4C3=O)nc12` [Example 33, 4-Methoxy-7-morpholin-4-yl-benzothiazole-2-carboxylic acid [4-(1,3-dioxo-1,3-dihydro-isoindol-2-yl)-butyl]-amide], the melting point was 114 to 118 °C.

In the case of `COc1ccc(N2CCOCC2)c2sc(C(=O)NCCN3C(=O)c4ccccc4C3=O)nc12` [Example 34, 4-Methoxy-7-morpholin-4-yl-benzothiazole-2-carboxylic acid [2-(1,3-dioxo-1,3-dihydro-isoindol-2-yl)-ethyl]-amide], the melting point fell in the range of 231 to 233 °C.

For `COc1ccc(N2CCOCC2)c2sc(C(=O)NCC3CCCCC3)nc12` [Example 35, 4-Methoxy-7-morpholin-4-yl-benzothiazole-2-carboxylic acid cyclohexylmethyl-amide], the melting point was in the range of 150 to 151 °C.

The molecule `COc1ccc(N2CCOCC2)c2sc(C(=O)NCC3Cc4ccccc4C(=O)N3)nc12` (stereo not shown) [Example 36, 4-Methoxy-7-morpholin-4-yl-benzothiazole-2-carboxylic acid (1-oxo-1,2,3,4-tetrahydro-isoquinolin-3-ylmethyl)-amide] gave a melting point of 152 to 155 °C.

In the case of `COc1ccccc1C(=O)NCCNC(=O)c1nc2c(OC)ccc(N3CCOCC3)c2s1` [Example 37, 4-Methoxy-7-morpholin-4-yl-benzothiazole-2-carboxylic acid [2-(2-methoxy-benzoylamino)-ethyl]-amide], the melting point lay within 180 to 183 °C.

`COc1ccc(N2CCOCC2)c2sc(C(=O)NCCc3ccccn3)nc12` [Example 38, 4-Methoxy-7-morpholin-4-yl-benzothiazole-2-carboxylic acid (2-pyridin-2-yl-ethyl)-amide] had a melting point of 184 to 185 °C.

For the molecule `COc1ccc(N2CCOCC2)c2sc(C(=O)NCC(=O)c3ccccc3)nc12` [Example 39, 4-Methoxy-7-morpholin-4-yl-benzothiazole-2-carboxylic acid (2-oxo-2-phenyl-ethyl)-amide], the melting point lay within 197 to 200 °C.

For `COc1ccc(N2CCOCC2)c2sc(C(=O)NCCCc3ccccc3)nc12` [Example 40, 4-Methoxy-7-morpholin-4-yl-benzothiazole-2-carboxylic acid (3-phenyl-propyl)-amide], the melting point turned out to be 147 °C.

For the molecule `COc1ccc(N2CCOCC2)c2sc(C(=O)NCC3CCCO3)nc12` (stereo not shown) [Example 41, 4-Methoxy-7-morpholin-4-yl-benzothiazole-2-carboxylic acid (tetrahydro-furan-2-ylmethyl)-amide], the melting point lay in the range of 171 to 172 °C.

For `COc1ccc(N2CCOCC2)c2sc(C(=O)NNC(=O)c3cccnc3)nc12` [Example 44, Nicotinic acid N′-(4-methoxy-7-morpholin-4-yl-benzothiazole-2-carbonyl)-hydrazide], the melting point is 222 to 224 °C.

`COc1ccc(N2CCOCC2)c2sc(C(=O)NNC(=O)c3ccncc3)nc12` [Example 45, Isonicotinic acid N′-(4-methoxy-7-morpholin-4-yl-benzothiazole-2-carbonyl)-hydrazide] had a melting point of 171 to 174 °C.

For the molecule `COc1ccc(N2CCOCC2)c2sc(C(=O)NNC(=O)c3ccccc3)nc12` [Example 46, 4-Methoxy-7-morpholin-4-yl-benzothiazole-2-carboxylic acid N′-benzoyl-hydrazide], the melting point is above 260 °C.

As to `COc1ccc(N2CCOCC2)c2sc(C(=O)NC(c3ccccc3)c3ccccc3)nc12` [Example 47, 4-Methoxy-7-morpholin-4-yl-benzothiazole-2-carboxylic acid benzhydryl-amide], the melting point is 166 to 168 °C.

Regarding `COc1ccc(N2CCOCC2)c2sc(C(=O)NCCc3ccncc3)nc12` [Example 48, 4-Methoxy-7-morpholin-4-yl-benzothiazole-2-carboxylic acid (2-pyridin-4-yl-ethyl)-amide], the melting point fell in the range of 185 to 188 °C.

`COc1ccc(N2CCOCC2)c2sc(C(=O)NCCc3cccc(NC(C)=O)c3)nc12` [Example 50, 4-Methoxy-7-morpholin-4-yl-benzothiazole-2-carboxylic acid [2-(3-acetylamino-phenyl)-ethyl]-amide] gave a melting point of 165 to 166 °C.

The molecule `COc1ccc(N2CCOCC2)c2sc(C(=O)NNc3ccccc3)nc12` [Example 51, 4-Methoxy-7-morpholin-4-yl-benzothiazole-2-carboxylic acid N′-phenyl-hydrazide] yielded a melting point of 226 to 227 °C.

For `COc1ccc(N2CCOCC2)c2sc(C(=O)NNC(=O)c3ccccn3)nc12` [Example 52, Pyridine-2-carboxylic acid N′-(4-methoxy-7-morpholin-4-yl-benzothiazole-2-carbonyl)-hydrazide], the melting point lay in the range of 225 to 226 °C.

Molecule `COc1ccc(N2CCOCC2)c2sc(C(=O)Nc3ccncc3)nc12` [Example 53, 4-Methoxy-7-morpholin-4-yl-benzothiazole-2-carboxylic acid pyridin-4-ylamide] gave a melting point of 206 to 207 °C.

Turning to `COc1cc(OC)cc(C(=O)NNC(=O)c2nc3c(OC)ccc(N4CCOCC4)c3s2)c1` [Example 56, 3,5-Dimethoxy-benzoic acid N′-(4-methoxy-7-morpholin-4-yl-benzothiazole-2-carbonyl)-hydrazide], the melting point fell in the range of 146 to 148 °C.

`COc1ccc(N2CCOCC2)c2sc(C(=O)NCCc3ccccc3F)nc12` [Example 58, 4-Methoxy-7-morpholin-4-yl-benzothiazole-2-carboxylic acid [2-(2-fluoro-phenyl)-ethyl]-amide] gave a melting point of 151 to 153 °C.

For `COc1ccc(N2CCOCC2)c2sc(C(=O)NCCc3cccc(C(F)(F)F)c3)nc12` [Example 60], the melting point lay within 106 to 108 °C.

`COc1ccc(N2CCOCC2)c2sc(C(=O)NCCc3ccc(C)cc3)nc12` [Example 61, 4-Methoxy-7-morpholin-4-yl-benzothiazole-2-carboxylic acid (2-p-tolyl-ethyl)-amide] came in with a melting point of 136 to 138 °C.

`COc1ccc(C(=O)CNC(=O)c2nc3c(OC)ccc(N4CCOCC4)c3s2)cc1` [Example 66, 4-Methoxy-7-morpholin-4-yl-benzothiazole-2-carboxylic acid [2-(4-methoxy-phenyl)-2-oxo-ethyl]-amide]: the melting point was in the range of 176 to 178 °C.

Molecule `COc1ccc(N2CCOCC2)c2sc(C(=O)NC(c3ccccc3)c3ccccn3)nc12` (stereo not shown) [Example 67, 4-Methoxy-7-morpholin-4-yl-benzothiazole-2-carboxylic acid (phenyl-pyridin-2-yl-methyl)-amide] gave a melting point of 219 to 221 °C.

In turn, `COc1ccc(CCNC(=O)c2nc3c(OC)ccc(N4CCOCC4)c3s2)cc1` [Example 68, 4-Methoxy-7-morpholin-4-yl-benzothiazole-2-carboxylic acid [2-(4-methoxy-phenyl)-ethyl]-amide] came in with a melting point of 69 to 71 °C.

The molecule `COc1ccc(N2CCOCC2)c2sc(C(=O)NCc3csc4ccccc34)nc12` [Example 69, 4-Methoxy-7-morpholin-4-yl-benzothiazole-2-carboxylic acid (benzo[b]thiophen-3-ylmethyl)-amide] registered a melting point of 187 to 189 °C.
